Experimental data as given in patent publication US8685924B2, “Preventives/remedies for stress urinary incontinence and method of screening the same” (Takeda Pharmaceutical Company Limited, priority 2004, dated 2014).

Experiments:
[1] = test system: urethane-anesthetized female rats; test: Antagonism of the leak point pressure increase by WAY-161503 / WAY-163909, direct bladder compression method (Example 4); assay type: in vivo, rat; settings: for leak point pressure after drug administration / leak point pressure increase / leak point pressure before drug administration: i.v., mean ± SEM; for leak point pressure before drug administration: baseline
Experimental: SD female rats (body weight 180-350 g) were anesthetized with urethane (Wako Pure Chemical Industries, Ltd.), and halothane (Takeda Pharmaceutical Company Limited) anesthesia was added when necessary during operation.
The spinal cord was transected at T8-9 level to eliminate the reflex voiding. The lower abdomen was incised in the median line, a catheter for intravesical pressure measurement (PE-90, Clay Adams) was inserted into the bladder and secured with a ligature, and the intravesical pressure was measured via a pressure transducer. Urine was emptized in advance by bilaterally pressing the bladder with two swabs, and a 0.1% Evans blue (Merck) solution (0.4 mL) was injected into the bladder. The bladder was gradually compressed bilaterally with two swabs, and the intravesical pressure upon saline leakage from the urethral orifice was measured and defined as a leak point pressure. The measurement of the leak point pressure was repeated, and the average value of the final five stable measures was taken as the value before drug administration. Thereafter, the drug was intravenously administered, the leak point pressure was measured again 20 min later, and the value after the drug administration was determined. DOI, mCPP and eltoprazine were dissolved in saline, and other drugs were dissolved in DMA/PEG400 (1:1), and intravenously administered at 1 ml/kg and 0.5 mg/kg, respectively. Depending on the experiment, RS-102221 or SB221284 (showing serotonin 5-HT2C receptor antagonist activity) was administered, 5 min later, WAY-161503 or WAY-163909 was administered, leak point pressure was measured 10 min later, and a competitive assay with the action of WAY-161503 or WAY-163909 was performed. RS-102221 and SB221284 were both dissolved in DMA/PEG400 (1:1), and intravenously administered at 0.5 ml/kg.

[2] = test system: urethane-anesthetized female rats; test: Antagonism of the leak point pressure increase by WAY-161503 / WAY-163909, abdominal wall-electrically stimulating method (Example 3); assay type: in vivo, rat; settings: for leak point pressure after drug administration / leak point pressure increase: i.v. 5 min before WAY-161503 0.3 mg/kg; for leak point pressure after drug administration / leak point pressure increase / leak point pressure before drug administration: i.v., mean ± SEM; for leak point pressure before drug administration: baseline, i.v. + WAY-161503 0.3 mg/kg
Experimental: SD female rats (body weight 180-350 g) were anesthetized with urethane (Wako Pure Chemical Industries, Ltd.), and the spinal cord was transected at T8-9 level to eliminate the reflex voiding. In addition, the nerve to the iliococcygeus muscle/pubococcygeus muscle on the one side was transected. During operation, halothane (Takeda Pharmaceutical Company Limited) anesthesia was added when necessary. A catheter (PE-90, Clay Adams) was inserted into the bladder and secured with a ligature, and the incised part of each of the abdominal muscle and skin was closed with sutures. The abdominal skin near the diaphragm was incised at two left and right positions to newly expose the abdominal muscle. An Evans Blue dye (Merck) solution was injected into the bladder, and the bladder volume was adjusted to 0.2-0.3 ml. The bladder catheter was connected to a pressure transducer, and the signals of the transducer were sent to a computer via an amplifier (blood pressure amplification unit AP-641G; NIHON KOHDEN) and an analog-to-digital converter (BIOPAC; MP100), and recorded on a hard disc. The data were analyzed on a computer using software (BIOPAC; AcqKnowledge). The exposed abdominal muscle was electrostimulated using an electrostimulator (SEN-3301; NIHON KODEN) and an isolator (SS-202J; NIHON KODEN), and the presence or absence of incontinence from the meatus urethra was observed. The electrostimulation was applied at a voltage of 2.5-50 V, duration of 0.5 milisec, and frequency 50 Hz for 1 sec, thereby gradually increasing the intravesical pressure. The peak intravesical pressure during stimulation of the abdominal wall was measured and, of the trials with observed incontinence, the lowest peak intravesical pressure was defined as the leak point pressure. Serotonin 5-HT receptor agonist, WAY-161503 (5-HT2C receptor agonist), WAY-163909 (5-HT2C receptor agonist), DOI (5-HT2A/2B/2C receptor agonist), mCPP (5-HT2B/2C receptor partial agonist), eltoprazine (5-HT1A/1B/2C receptor partial agonist), 8-OH-DPAT (5-HT1A receptor agonist), sumatryptan (5-HT1B/1D receptor agonist) and BW723C86 (5-HT2B receptor agonist) were intravenously administered, and the leak point pressure was compared before and after the administration. DOI, mCPP and eltoprazine were dissolved in saline, and other drugs were dissolved in DMA/PEG400 (1:1), and they were intravenously administered at 1 ml/kg and 0.5 mg/kg, respectively. Depending on the experiment, RS-102221 (serotonin 5-HT2C receptor antagonist) or SB221284 (serotonin 5-HT2B/2C receptor antagonist) was intravenously administered 5 min before WAY-161503 or WAY-163909 administration, and an antagonistic effect against the WAY-161503 or WAY-163909-induced increment of the leak point pressure was examined. RS-102221 and SB221284 were both dissolved in DMA/PEG400 (1:1) and intravenously administered at 0.5 ml/kg.

[3] = antagonist 0.1 mg/kg, i.v. 5 min before WAY-163909 0.3 mg/kg
[4] = antagonist 0.3 mg/kg, i.v. 5 min before WAY-163909 0.3 mg/kg
[5] = antagonist alone 0.3 mg/kg, agonist: solvent, WAY-163909 series

In the case of `CSc1cc2c(cc1C(F)(F)F)N(C(=O)Nc1cccnc1)CC2` [SB221284], the “leak point pressure after drug administration” value [1, 3] is reported as 59.4 ± 3.9 cmH2O, the “leak point pressure increase” value [1, 3] is reported as 6.2 ± 3.1 cmH2O and the “leak point pressure after drug administration” value [1, 4] is reported as 60.7 ± 3.9 cmH2O. The “leak point pressure increase” value [1, 4] was 0.4 ± 1.7 cmH2O, the “leak point pressure after drug administration” value [1, 5] was 63.0 ± 2.0 cmH2O and the “leak point pressure increase” value [1, 5] was −1.2 ± 2.2 cmH2O. For the same molecule, the “leak point pressure before drug administration” value ([1]; antagonist 0.1 mg/kg, i.v. + WAY-163909 0.3 mg/kg) was 53.2 ± 3.4 cmH2O, the “leak point pressure before drug administration” value ([1]; antagonist 0.3 mg/kg, i.v. + WAY-163909 0.3 mg/kg) was 60.3 ± 4.0 cmH2O and the “leak point pressure before drug administration” value [1, 5] was 64.2 ± 1.2 cmH2O. The “suppression of the leak point pressure increase” value ([1]; intravenous, against WAY-163909) was “significantly suppressed an increase in the leak point pressure by WAY-163909”, the “suppression of the leak point pressure increasing action” value ([2]; against WAY-161503) was “suppressed the leak point pressure increasing action by WAY-161503 significantly” and the “leak point pressure after drug administration” value ([2]; antagonist 0.1 mg/kg) was 66.9 ± 9.8 cmH2O. For the same molecule, the “leak point pressure increase” value ([2]; antagonist 0.1 mg/kg) was 13.6 ± 3.8 cmH2O, the “leak point pressure after drug administration” value ([2]; antagonist 0.3 mg/kg) was 46.8 ± 6.2 cmH2O and the “leak point pressure increase” value ([2]; antagonist 0.3 mg/kg) was −3.6 ± 1.4 cmH2O. The “leak point pressure before drug administration” value ([2]; antagonist 0.1 mg/kg) was 53.3 ± 7.0 cmH2O and the “leak point pressure before drug administration” value ([2]; antagonist 0.3 mg/kg) was 50.4 ± 6.3 cmH2O.
